ChEMBL document CHEMBL3045592, “Studies of O,O-dimethyl α-(2,4-dichlorophenoxyacetoxy)ethylphosphonate (HW02) as a new herbicide. 1. Synthesis and herbicidal activity of HW02 and analogues as novel inhibitors of pyruvate dehydrogenase complex” (J Agric Food Chem, 2011)

Legend:
Assay type in all cases: functional
[1] = test system: Echinochloa crus-galli; assay: Pre-emergence herbicidal activity against Echinochloa crus-galli (barnyard grass) assessed as growth inhibition at 1500 ai g/ha after 20 days by green house test
[2] = test system: Medicago sativa; assay: Post-emergence herbicidal activity against Medicago sativa (alfalfa) assessed as growth inhibition at 1500 ai g/ha after 20 days by green house test
[3] = test system: Brassica rapa subsp. oleifera; assay: Pre-emergence herbicidal activity against Brassica rapa subsp. oleifera Si Yue Man assessed as growth inhibition at 1500 ai g/ha after 20 days by green house test
[4] = test system: Echinochloa crus-galli; assay: Post-emergence herbicidal activity against Echinochloa crus-galli (barnyard grass) assessed as growth inhibition at 1500 ai g/ha after 20 days by green house test
[5] = test system: Medicago sativa; assay: Pre-emergence herbicidal activity against Medicago sativa (alfalfa) assessed as growth inhibition at 1500 ai g/ha after 20 days by green house test
[6] = test system: Amaranthus retroflexus; assay: Pre-emergence herbicidal activity against Amaranthus retroflexus assessed as growth inhibition at 1500 ai g/ha after 20 days by green house test
[7] = test system: Digitaria sanguinalis; assay: Post-emergence herbicidal activity against Digitaria sanguinalis (hairy crabgrass) assessed as growth inhibition at 1500 ai g/ha after 20 days by green house test
[8] = test system: Brassica rapa subsp. oleifera; assay: Post-emergence herbicidal activity against Brassica rapa subsp. oleifera Si Yue Man assessed as growth inhibition at 1500 ai g/ha after 20 days by green house test
[9] = test system: Digitaria sanguinalis; assay: Pre-emergence herbicidal activity against Digitaria sanguinalis (hairy crabgrass) assessed as growth inhibition at 1500 ai g/ha after 20 days by green house test
[10] = test system: Amaranthus retroflexus; assay: Post-emergence herbicidal activity against Amaranthus retroflexus assessed as growth inhibition at 1500 ai g/ha after 20 days by green house test

| Structure (SMILES) | growth inhibition (GI) [1] | growth inhibition (GI) [2] | growth inhibition (GI) [3] | growth inhibition (GI) [4] | growth inhibition (GI) [5] | growth inhibition (GI) [6] | growth inhibition (GI) [7] | growth inhibition (GI) [8] | growth inhibition (GI) [9] | growth inhibition (GI) [10] |
| --- | --- | --- | --- | --- | --- | --- | --- | --- | --- | --- |
| COP(=O)(OC)C(C)OC(=O)COc1ccc(Cl)cc1[N+](=O)[O-] (stereo not given) | <=50% | <=50% | <=50% | <=50% | <=50% | <=50% | <=50% | <=50% | <=50% | <=50% |
| COP(=O)(OC)C(OC(=O)COc1ccc(C(F)(F)F)cc1[N+](=O)[O-])c1cccc([N+](=O)[O-])c1 (stereo not given) | <=50% | <=50% | <=50% | <=50% | <=50% | <=50% | <=50% | <=50% | <=50% | <=50% |
| COP(=O)(OC)C(OC(=O)COc1ccc(F)c(Cl)c1)c1ccccc1 (stereo not given) | 75% | 50% | 90% | 50% | 75% | 90% | <=50% | 75% | 90% | 75% |
| COP(=O)(OC)C(OC(=O)COc1ccc(F)cc1Cl)c1ccccc1O (stereo not given) | 50% | 90% | 90% | 50% | 90% | 90% | <=50% | 90% | 90% | 90% |
| COP(=O)(OC)C(C)OC(=O)COc1ccccc1F (stereo not given) | <=50% | <=50% | <=50% | <=50% | <=50% | <=50% | <=50% | <=50% | <=50% | <=50% |
| COP(=O)(OC)C(OC(=O)COc1ccc(Cl)cc1Cl)c1cccc(Br)c1 (stereo not given) | 50% | 90% | 90% | 50% | 90% | 90% | <=50% | 90% | 90% | 90% |
| COP(=O)(OC)C(C)OC(=O)COc1cccc(Cl)c1Cl (stereo not given) | <=50% | <=50% | <=50% | <=50% | <=50% | <=50% | <=50% | <=50% | <=50% | 50% |
| COP(=O)(OC)C(OC(=O)COc1ccccc1F)c1cccc([N+](=O)[O-])c1 (stereo not given) | <=50% | <=50% | <=50% | 90% | <=50% | <=50% | <=50% | <=50% | <=50% | <=50% |
| COP(=O)(OC)C(OC(=O)COc1ccc(C(F)(F)F)cc1[N+](=O)[O-])c1ccccc1 (stereo not given) | <=50% | <=50% | <=50% | <=50% | <=50% | <=50% | <=50% | <=50% | <=50% | <=50% |
| COP(=O)(OC)C(OC(=O)COc1ccc(F)cc1)c1cccc([N+](=O)[O-])c1 (stereo not given) | 50% | 50% | <=50% | 50% | 75% | 75% | 50% | 50% | 90% | 75% |
| COP(=O)(OC)C(C)OC(=O)COc1ccc(Cl)cc1 (stereo not given) | 90% | 50% | 90% | <=50% | 90% | 90% | <=50% | 75% | 90% | 90% |
